A word on the inhibition: it is the change of the read-out against control, counted positive when it falls. For orientation: IC50 means the point on the concentration scale where inhibition reaches its midpoint. A low value points to higher potency.

The values that follow come from ChEMBL document CHEMBL5661979, “Pharmacological inhibition of BMK1 suppresses tumor growth through promyelocytic leukemia protein” (Cancer Cell, 2010).

Structures are written as SMILES.

Data set [1] can be described thus: Toxicity in C57Bl/6 mouse assessed as effect on alanine aminotransferase level at 50 mg/kg, ip for 14 days (reference value: 35 U/L). Format: organism-based. The following applies: in vivo, 336 h, time 14 day.
Data set [2] deals with Serine/threonine-protein kinase Nek8 (Homo sapiens) (UniProt Q86SG6). Kind of data set: Inhibition of NEK8 in human HeLa cells lysate at 10 uM pre incubated for 15 mins followed by ADP acyl phosphate probe addition and measured after 10 mins by LC-MS/MS analysis relative to control. In kind it is subcellular. The following applies: time 25.0 min.
Chain of Serine/threonine-protein kinase Nek8 (Homo sapiens) (Q86SG6 whole entry): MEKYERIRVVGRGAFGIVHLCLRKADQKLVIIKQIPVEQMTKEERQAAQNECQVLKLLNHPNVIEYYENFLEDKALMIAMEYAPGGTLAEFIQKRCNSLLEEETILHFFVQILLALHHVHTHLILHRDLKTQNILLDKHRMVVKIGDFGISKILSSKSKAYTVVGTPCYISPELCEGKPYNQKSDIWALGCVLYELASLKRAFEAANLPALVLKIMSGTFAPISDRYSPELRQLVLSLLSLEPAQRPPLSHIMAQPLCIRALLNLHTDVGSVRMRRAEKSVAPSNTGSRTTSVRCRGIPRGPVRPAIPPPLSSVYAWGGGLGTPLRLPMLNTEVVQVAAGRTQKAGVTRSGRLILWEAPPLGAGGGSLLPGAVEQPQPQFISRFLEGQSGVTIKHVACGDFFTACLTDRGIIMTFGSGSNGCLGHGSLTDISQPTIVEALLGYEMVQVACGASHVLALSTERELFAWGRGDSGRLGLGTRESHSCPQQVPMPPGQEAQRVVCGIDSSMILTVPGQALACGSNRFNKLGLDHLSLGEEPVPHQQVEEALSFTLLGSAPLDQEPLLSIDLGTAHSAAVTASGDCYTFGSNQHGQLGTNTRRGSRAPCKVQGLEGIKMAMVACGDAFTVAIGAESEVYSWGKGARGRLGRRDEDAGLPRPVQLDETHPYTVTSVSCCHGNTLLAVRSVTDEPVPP
Data set [3] addresses T1, Non-receptor tyrosine-protein kinase TNK1 (Homo sapiens) (UniProt Q13470).
T1 sequence (whole entry): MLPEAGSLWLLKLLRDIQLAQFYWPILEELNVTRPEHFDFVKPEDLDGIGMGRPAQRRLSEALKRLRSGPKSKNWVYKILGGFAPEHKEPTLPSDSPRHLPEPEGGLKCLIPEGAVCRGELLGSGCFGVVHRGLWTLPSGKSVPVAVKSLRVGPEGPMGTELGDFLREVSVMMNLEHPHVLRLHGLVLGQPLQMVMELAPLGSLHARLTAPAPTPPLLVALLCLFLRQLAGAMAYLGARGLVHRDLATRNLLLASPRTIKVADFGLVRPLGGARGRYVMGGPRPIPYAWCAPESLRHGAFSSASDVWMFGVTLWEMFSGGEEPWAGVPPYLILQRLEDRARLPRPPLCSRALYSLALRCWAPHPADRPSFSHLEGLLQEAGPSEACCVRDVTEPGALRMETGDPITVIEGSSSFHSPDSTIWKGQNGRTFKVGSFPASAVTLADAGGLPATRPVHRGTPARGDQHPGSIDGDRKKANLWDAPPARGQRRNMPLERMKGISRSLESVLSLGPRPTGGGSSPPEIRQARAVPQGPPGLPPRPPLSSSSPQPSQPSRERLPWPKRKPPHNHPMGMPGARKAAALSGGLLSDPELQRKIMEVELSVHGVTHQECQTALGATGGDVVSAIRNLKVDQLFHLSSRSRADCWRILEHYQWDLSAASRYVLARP
Kind of data set: Inhibition of TNK1 in human HeLa cells lysate at 2 uM pre incubated for 15 mins followed by ADP acyl phosphate probe addition and measured after 10 mins by LC-MS/MS analysis relative to control. In kind it is subcellular. The following applies: time 25.0 min.

The target in data set [4] is Protein kinase C iota type (Homo sapiens) (UniProt P41743). Description: Inhibition of PKCiota in human HeLa cells lysate at 2 uM pre incubated for 15 mins followed by ADP acyl phosphate probe addition and measured after 10 mins by LC-MS/MS analysis relative to control. In kind it is subcellular. As to conditions: time 25.0 min.
Data set [5] deals with Interleukin-1 receptor-associated kinase 1 (Homo sapiens, UniProt P51617). Description: Inhibition of IRAK1 in human HeLa cells lysate pre incubated for 15 mins followed by ATP acyl phosphate probe addition and measured after 10 mins by LC-MS/MS analysis. In kind it is subcellular.
The next data set deals with RPS6KA1/RPS6KA2/RPS6KA3 (Homo sapiens, UniProt P51812+Q15349+Q15418). Kind of data set: Inhibition of RSK1/2/3 in human HeLa cells lysate at 10 uM pre incubated for 15 mins followed by ATP acyl phosphate probe addition and measured after 10 mins by LC-MS/MS analysis relative to control. The following applies: time 25.0 min. Format: subcellular.
The target in data set [6] is Microtubule-associated serine/threonine-protein kinase 3 (Homo sapiens, UniProt O60307). Description: Inhibition of MAST3 in human HeLa cells lysate at 50 uM pre incubated for 15 mins followed by ATP acyl phosphate probe addition and measured after 10 mins by LC-MS/MS analysis relative to control. The following applies: time 25.0 min. In kind it is subcellular.
For a further data set, the target named is SRSF protein kinase 1 (Homo sapiens, UniProt Q96SB4). Kind of data set: Inhibition of SRPK1 in human HeLa cells lysate at 10 uM pre incubated for 15 mins followed by ATP acyl phosphate probe addition and measured after 10 mins by LC-MS/MS analysis relative to control. Format: subcellular. The following applies: time 25.0 min.
Chain of SRSF protein kinase 1 (Q96SB4 whole entry): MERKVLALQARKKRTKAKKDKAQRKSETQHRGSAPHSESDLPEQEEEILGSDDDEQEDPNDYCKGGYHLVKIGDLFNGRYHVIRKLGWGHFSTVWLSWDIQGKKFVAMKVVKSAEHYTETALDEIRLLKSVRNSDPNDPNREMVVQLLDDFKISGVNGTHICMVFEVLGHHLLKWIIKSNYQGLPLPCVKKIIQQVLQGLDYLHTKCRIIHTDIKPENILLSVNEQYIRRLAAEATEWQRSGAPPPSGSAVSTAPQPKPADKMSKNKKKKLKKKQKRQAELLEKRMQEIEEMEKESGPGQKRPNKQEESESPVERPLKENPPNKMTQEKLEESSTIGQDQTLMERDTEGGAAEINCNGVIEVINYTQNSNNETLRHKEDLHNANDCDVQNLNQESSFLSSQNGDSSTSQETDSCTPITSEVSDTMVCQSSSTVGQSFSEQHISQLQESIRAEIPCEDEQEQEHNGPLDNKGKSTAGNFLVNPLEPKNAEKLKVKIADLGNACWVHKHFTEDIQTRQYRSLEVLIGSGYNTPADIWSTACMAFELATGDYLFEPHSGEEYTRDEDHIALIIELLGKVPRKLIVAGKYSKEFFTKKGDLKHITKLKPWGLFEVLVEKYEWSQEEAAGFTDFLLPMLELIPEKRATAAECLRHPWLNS
In data set [7] the target is T2, Serine/threonine-protein kinase Sgk3 (Homo sapiens) (UniProt Q96BR1).
T2 sequence (whole entry): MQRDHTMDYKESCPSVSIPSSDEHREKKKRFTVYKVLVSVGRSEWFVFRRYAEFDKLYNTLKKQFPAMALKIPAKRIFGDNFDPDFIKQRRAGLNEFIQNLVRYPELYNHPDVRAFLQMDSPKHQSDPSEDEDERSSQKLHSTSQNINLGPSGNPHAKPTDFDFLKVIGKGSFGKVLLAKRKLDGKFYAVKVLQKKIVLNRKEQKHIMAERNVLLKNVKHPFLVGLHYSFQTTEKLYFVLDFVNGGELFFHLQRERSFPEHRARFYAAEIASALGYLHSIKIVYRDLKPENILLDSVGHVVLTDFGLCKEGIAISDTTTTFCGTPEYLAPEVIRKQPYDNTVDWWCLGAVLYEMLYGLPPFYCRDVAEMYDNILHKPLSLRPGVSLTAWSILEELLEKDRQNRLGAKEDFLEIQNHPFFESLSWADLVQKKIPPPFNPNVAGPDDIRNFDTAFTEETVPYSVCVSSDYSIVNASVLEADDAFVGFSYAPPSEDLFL
Kind of data set: Inhibition of SGK3 in human HeLa cells lysate at 10 uM pre incubated for 15 mins followed by ADP acyl phosphate probe addition and measured after 10 mins by LC-MS/MS analysis relative to control. In kind it is subcellular. As to conditions: time 25.0 min.

In data set [8] the target is Serine/threonine-protein kinase ULK3 (Homo sapiens, UniProt Q6PHR2). Description: Inhibition of ULK3 in human HeLa cells lysate pre incubated for 15 mins followed by ATP acyl phosphate probe addition and measured after 10 mins by LC-MS/MS analysis. Format: subcellular.
Chain of Serine/threonine-protein kinase ULK3 (Q6PHR2 whole entry): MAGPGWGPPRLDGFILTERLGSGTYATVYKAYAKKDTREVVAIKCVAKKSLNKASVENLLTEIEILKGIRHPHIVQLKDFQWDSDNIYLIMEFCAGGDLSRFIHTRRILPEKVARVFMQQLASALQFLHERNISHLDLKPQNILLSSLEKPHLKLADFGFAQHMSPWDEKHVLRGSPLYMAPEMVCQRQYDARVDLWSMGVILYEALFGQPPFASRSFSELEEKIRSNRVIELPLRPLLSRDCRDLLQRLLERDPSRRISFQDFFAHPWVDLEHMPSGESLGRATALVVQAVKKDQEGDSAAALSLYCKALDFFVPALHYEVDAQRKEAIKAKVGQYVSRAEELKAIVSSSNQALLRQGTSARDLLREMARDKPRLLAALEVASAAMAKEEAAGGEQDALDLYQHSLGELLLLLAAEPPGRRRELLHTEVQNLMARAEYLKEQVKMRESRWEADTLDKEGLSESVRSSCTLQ
Data set [9] concerns the target Cyclin-dependent kinase 11B (Homo sapiens, UniProt P21127). Kind of data set: Inhibition of PITSLRE in human HeLa cells lysate at 50 uM pre incubated for 15 mins followed by ATP acyl phosphate probe addition and measured after 10 mins by LC-MS/MS analysis relative to control. Format: subcellular. As to conditions: time 25.0 min.
Data set [10] has as its target Ribosomal protein S6 kinase alpha-1 (Homo sapiens, UniProt Q15418). Kind of data set: Inhibition of RSK1 domain 2 K1 site in human HeLa cells lysate pre incubated for 15 mins followed by ADP acyl phosphate probe addition and measured after 10 mins by LC-MS/MS analysis. Format: subcellular.
Data set [11] in a line: Plasma concentration in C57Bl/6 mouse at 50 mg/kg, ip administered for 4 day and measured 8 hr post last dose by LC-MS/MS analysis. Format: ADME, organism-based.
For data set [12], the target named is Mixed lineage kinase domain-like protein (Homo sapiens, UniProt Q8NB16). Description: Inhibition of MLKL in human HeLa cells lysate pre incubated for 15 mins followed by ADP acyl phosphate probe addition and measured after 10 mins by LC-MS/MS analysis. In kind it is subcellular.
Chain of Mixed lineage kinase domain-like protein (Q8NB16 whole entry, the tested form may be a part): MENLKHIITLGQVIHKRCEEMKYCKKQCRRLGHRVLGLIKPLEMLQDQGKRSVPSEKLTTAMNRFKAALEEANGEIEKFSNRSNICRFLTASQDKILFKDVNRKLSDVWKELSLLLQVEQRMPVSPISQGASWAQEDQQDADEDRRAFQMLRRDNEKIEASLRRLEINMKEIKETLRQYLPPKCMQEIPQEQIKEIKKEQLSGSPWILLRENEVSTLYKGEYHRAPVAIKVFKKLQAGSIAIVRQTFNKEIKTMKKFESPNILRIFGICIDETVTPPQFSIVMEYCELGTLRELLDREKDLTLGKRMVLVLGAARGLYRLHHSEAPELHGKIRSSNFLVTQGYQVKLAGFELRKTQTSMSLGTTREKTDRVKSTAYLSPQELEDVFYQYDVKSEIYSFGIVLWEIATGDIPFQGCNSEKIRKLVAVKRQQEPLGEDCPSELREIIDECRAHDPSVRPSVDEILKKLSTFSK
In the next data set the target is eIF-2-alpha kinase GCN2 (Homo sapiens, UniProt Q9P2K8). Kind of data set: Inhibition of GCN2 in human HeLa cells lysate at 10 uM pre incubated for 15 mins followed by ATP acyl phosphate probe addition and measured after 10 mins by LC-MS/MS analysis relative to control. In kind it is subcellular. As to conditions: time 25.0 min.
Chain of eIF-2-alpha kinase GCN2 (Q9P2K8 whole entry): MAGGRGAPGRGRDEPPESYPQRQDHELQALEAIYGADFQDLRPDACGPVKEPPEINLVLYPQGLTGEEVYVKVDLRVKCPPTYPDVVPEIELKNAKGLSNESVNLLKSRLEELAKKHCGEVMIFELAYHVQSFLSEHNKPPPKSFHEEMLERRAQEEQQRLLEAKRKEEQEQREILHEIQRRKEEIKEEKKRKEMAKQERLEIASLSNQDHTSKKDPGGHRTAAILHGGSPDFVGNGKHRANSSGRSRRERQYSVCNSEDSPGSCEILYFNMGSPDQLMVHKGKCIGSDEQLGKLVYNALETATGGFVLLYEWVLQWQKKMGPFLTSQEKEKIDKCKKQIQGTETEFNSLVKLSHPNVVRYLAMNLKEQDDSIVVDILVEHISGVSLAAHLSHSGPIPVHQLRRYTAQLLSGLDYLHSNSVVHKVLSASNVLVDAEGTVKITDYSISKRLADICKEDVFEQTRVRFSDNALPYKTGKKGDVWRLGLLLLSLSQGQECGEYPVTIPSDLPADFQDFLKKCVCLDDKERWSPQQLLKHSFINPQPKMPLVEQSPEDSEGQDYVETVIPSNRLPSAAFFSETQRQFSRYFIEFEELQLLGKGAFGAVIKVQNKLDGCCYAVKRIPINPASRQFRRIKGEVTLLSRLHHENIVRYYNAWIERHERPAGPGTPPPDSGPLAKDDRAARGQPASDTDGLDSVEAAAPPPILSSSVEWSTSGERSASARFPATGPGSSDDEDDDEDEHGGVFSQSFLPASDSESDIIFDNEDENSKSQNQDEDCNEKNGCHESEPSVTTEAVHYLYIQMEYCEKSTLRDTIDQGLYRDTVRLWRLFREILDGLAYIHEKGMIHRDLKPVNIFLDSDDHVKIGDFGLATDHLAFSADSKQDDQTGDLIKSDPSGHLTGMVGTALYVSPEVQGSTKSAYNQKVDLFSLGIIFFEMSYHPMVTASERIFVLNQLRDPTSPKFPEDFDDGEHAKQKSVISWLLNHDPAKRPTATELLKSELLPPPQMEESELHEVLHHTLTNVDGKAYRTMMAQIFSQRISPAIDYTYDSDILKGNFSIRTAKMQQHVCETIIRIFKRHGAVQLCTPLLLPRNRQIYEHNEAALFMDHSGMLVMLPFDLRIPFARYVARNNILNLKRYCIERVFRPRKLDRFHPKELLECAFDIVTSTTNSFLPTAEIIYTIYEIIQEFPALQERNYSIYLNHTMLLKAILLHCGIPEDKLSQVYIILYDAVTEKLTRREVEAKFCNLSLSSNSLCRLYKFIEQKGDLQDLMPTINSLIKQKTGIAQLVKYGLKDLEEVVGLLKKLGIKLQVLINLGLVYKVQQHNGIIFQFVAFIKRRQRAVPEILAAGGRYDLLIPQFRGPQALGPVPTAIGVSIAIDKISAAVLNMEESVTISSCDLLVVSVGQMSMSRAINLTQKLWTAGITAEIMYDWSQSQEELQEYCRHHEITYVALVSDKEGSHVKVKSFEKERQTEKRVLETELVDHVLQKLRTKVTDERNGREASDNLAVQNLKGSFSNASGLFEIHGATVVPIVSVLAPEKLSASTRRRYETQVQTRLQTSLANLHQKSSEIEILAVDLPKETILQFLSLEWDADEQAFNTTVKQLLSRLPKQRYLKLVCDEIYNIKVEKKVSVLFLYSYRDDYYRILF

Chain of Cyclin-dependent kinase 11B (P21127 whole entry, the tested form may be a part): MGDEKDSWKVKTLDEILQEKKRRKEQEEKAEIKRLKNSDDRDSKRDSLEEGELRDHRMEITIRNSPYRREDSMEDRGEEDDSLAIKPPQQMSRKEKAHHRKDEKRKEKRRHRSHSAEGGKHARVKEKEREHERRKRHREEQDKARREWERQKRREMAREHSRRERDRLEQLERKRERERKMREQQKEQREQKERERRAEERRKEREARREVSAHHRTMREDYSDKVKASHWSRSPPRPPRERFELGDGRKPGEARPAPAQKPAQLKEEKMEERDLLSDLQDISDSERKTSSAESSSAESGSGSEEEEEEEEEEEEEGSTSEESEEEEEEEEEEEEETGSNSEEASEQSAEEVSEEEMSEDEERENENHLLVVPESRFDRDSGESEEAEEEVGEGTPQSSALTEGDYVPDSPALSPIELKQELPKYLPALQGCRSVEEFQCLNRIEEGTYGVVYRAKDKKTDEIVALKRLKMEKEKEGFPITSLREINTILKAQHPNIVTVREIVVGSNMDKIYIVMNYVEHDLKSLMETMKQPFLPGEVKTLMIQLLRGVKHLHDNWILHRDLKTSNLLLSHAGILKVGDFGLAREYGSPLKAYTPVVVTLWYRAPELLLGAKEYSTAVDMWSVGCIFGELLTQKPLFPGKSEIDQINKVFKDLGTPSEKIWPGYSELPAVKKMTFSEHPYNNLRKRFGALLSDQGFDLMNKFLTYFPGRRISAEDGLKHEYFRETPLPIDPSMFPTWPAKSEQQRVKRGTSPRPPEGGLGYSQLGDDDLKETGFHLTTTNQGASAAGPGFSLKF

Regarding `CCOc1cc(N2CCC(O)CC2)ccc1Nc1ncc2c(n1)N(C)c1ccccc1C(=O)N2C`, the Activity in [1] is listed as 402 U/L. In addition, the inhibition in data set [2] was -0.8%; in data set [3], 9.2%; in data set [4] it was 18.9%; against RPS6KA1/RPS6KA2/RPS6KA3 it was -7.4%; in data set [6], -5.8%; against SRSF protein kinase 1, 1.3%. Also, the inhibition in data set [7] is -0.3%; in [9], -8.6%; at eIF-2-alpha kinase GCN2, -0.6%. For the same compound, the IC50 in [5] was more than 50 µM; in [8], more than 50 µM; in data set [10], 29 µM; in data set [12] it was more than 50 µM. Further, the concentration at 96 h in data set [11] was 9 µM.
